Data: PMC9185959, “A nutraceutical product, extracted from Cannabis sativa, modulates voltage-gated sodium channel function” (Journal of Cannabis Research, 2022)

Columns and labels:
Test in all cases: automated planar patch-clamp, whole-cell peak current
Format in all cases: cell-based
NaV1.2 = target: T1, NaV1.2 (Homo sapiens, UniProt Q99250); conditions: holding -80 mV, 200 ms at -120 mV then test pulse to 0 mV every 2 s; 5 min exposure, cumulative 0.1-100 μM; 0.1% DMSO; pH 7.4; 27°C; n=6
T1 construct: gene SCN2A; full-length channel, stably expressed in HEK293T cells; splice form and beta subunits not mentioned
Description: automated planar patch-clamp, whole-cell peak current on NaV1.2

NaV1.1 = target: T2, NaV1.1 (Homo sapiens, UniProt P35498); conditions: holding -80 mV, 200 ms at -120 mV then test pulse to 0 mV every 2 s; 5 min exposure, cumulative 0.1-100 μM; 0.1% DMSO; pH 7.4; 27°C; n=9
T2 construct: gene SCN1A; full-length channel, stably expressed in HEK293T cells; beta subunits not mentioned
Description: automated planar patch-clamp, whole-cell peak current on NaV1.1

NaV1.7 = target: T3, NaV1.7 (Homo sapiens, UniProt Q15858); conditions: holding -80 mV, 200 ms at -120 mV then test pulse to 0 mV every 2 s; 5 min exposure, cumulative 0.1-100 μM; 0.1% DMSO; pH 7.4; 27°C; n=7
T3 construct: gene SCN9A; full-length channel, stably expressed in HEK293T cells; beta subunits not mentioned
Description: automated planar patch-clamp, whole-cell peak current on NaV1.7

T1 sequence (Q99250 whole entry, canonical isoform): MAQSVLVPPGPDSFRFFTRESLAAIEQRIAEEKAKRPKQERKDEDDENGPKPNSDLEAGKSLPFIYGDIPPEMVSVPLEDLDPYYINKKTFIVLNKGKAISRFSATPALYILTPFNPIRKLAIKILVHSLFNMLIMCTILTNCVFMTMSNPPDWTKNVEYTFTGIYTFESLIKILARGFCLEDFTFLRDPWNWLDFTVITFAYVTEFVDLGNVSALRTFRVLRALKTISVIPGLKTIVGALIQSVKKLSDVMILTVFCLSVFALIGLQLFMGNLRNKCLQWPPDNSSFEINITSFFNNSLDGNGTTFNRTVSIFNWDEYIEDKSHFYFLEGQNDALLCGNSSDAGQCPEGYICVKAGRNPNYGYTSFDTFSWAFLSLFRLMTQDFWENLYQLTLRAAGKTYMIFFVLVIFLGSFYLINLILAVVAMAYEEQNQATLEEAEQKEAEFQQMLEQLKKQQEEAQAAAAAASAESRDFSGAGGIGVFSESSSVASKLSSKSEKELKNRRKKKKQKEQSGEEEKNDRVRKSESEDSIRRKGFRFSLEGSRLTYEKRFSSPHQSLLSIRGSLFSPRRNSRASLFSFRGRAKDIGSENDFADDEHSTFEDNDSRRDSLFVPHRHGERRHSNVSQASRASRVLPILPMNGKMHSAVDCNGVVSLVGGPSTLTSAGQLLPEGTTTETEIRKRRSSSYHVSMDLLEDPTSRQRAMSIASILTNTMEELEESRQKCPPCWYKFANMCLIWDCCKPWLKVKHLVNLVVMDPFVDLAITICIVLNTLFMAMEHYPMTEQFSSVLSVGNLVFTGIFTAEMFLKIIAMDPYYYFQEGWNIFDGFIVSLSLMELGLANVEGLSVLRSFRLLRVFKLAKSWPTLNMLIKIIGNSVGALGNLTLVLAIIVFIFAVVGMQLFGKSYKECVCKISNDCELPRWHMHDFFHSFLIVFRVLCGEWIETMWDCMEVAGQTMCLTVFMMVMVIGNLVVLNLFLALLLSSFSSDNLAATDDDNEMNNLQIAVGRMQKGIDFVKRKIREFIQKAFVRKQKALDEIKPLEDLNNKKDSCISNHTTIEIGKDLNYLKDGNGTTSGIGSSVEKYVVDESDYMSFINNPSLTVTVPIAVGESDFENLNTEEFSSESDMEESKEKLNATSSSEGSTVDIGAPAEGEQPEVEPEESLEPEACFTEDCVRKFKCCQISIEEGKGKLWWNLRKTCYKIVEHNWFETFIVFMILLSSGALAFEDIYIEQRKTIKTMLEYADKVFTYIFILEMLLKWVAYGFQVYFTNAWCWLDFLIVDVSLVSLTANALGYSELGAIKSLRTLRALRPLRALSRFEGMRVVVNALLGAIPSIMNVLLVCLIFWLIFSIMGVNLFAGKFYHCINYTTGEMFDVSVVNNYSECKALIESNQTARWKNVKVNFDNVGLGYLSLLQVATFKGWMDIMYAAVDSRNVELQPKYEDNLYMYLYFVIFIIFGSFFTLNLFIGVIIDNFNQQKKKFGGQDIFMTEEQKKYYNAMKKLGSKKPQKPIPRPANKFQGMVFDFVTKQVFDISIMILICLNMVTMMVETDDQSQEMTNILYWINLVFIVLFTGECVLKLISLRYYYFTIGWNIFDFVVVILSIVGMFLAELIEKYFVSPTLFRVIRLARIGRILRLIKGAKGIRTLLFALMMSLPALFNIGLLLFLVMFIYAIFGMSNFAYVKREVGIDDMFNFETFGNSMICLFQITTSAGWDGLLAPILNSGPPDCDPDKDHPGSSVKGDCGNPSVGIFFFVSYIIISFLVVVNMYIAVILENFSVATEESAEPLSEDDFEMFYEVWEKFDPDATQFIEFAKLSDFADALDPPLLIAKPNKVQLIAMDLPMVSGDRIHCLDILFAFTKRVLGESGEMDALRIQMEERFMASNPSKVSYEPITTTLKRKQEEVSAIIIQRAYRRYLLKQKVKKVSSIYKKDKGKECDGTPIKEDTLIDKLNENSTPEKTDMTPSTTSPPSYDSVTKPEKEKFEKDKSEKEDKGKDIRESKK
T3 sequence (Q15858 whole entry): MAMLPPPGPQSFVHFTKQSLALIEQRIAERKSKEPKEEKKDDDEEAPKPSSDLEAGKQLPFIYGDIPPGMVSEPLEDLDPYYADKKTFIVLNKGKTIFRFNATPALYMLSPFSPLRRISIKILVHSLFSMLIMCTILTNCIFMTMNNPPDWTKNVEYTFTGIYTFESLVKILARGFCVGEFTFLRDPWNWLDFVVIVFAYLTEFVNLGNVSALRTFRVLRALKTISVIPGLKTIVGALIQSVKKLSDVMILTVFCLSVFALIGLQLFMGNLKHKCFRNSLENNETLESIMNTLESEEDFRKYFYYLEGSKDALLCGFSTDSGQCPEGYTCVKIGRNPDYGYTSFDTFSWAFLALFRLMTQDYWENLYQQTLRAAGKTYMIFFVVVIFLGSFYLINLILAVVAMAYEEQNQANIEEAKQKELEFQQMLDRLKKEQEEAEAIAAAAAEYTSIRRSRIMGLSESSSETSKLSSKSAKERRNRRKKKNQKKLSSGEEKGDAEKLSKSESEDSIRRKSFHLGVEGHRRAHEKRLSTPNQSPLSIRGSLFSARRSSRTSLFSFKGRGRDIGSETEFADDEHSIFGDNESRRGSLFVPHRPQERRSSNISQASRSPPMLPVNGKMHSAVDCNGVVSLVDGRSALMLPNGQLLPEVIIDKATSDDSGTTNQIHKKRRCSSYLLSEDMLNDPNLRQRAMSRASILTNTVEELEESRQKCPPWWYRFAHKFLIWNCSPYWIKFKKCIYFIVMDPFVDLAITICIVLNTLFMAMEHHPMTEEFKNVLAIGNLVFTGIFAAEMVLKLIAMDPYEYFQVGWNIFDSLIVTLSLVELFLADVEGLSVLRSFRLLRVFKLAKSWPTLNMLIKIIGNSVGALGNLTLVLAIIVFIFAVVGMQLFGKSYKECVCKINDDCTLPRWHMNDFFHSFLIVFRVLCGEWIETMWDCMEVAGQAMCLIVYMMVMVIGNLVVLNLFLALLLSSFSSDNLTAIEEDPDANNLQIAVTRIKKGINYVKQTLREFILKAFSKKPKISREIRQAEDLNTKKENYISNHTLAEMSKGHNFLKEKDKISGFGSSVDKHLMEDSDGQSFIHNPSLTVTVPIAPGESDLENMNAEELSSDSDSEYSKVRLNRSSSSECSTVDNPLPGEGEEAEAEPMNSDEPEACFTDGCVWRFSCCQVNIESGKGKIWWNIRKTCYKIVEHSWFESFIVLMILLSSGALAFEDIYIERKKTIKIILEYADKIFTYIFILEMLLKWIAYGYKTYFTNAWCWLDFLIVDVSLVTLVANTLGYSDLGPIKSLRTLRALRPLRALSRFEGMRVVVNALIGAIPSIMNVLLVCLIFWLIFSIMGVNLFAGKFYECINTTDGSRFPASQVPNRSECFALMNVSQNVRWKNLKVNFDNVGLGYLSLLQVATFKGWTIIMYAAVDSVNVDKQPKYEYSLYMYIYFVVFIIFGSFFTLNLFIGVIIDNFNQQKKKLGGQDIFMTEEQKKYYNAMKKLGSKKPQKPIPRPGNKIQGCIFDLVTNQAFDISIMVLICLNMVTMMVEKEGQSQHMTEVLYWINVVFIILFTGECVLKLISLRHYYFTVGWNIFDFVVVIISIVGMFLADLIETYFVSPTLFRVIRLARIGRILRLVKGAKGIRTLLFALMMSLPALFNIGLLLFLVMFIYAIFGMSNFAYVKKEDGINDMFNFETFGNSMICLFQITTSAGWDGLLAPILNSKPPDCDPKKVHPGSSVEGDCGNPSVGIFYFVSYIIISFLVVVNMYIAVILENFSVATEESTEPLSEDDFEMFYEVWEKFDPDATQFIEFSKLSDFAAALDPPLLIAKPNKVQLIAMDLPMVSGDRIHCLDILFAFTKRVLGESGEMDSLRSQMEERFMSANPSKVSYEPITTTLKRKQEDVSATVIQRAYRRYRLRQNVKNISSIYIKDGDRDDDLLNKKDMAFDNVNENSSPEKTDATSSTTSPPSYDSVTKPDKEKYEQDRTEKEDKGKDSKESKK

## C=C(C)[C@@H]1CCC(C)=C[C@H]1c1c(O)cc(CCCCC)cc1O [CBD]
NaV1.2
  IC50: 18.4 ± 2.6 µM
NaV1.1
  IC50: 18.5 ± 2.2 µM
NaV1.7
  IC50: 11.9 ± 2.2 µM
